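Cells were grown in 96-well plates and exposed to each compound for 48 hours at five concentrations; endpoints were interpolated linearly between bracketing concentrations, or set to the highest concentration if not reached. The concentration for 50% growth inhibition is given as GI50.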 Calls of active or inactive are those of the source. No stated cut-off is given here; in the data, active = GI50 up to about 1.1 µM and inactive = higher.
What was measured:
Assay in all cases: DTP human tumour cell line panel, 48 h
RPMI-8226 = test system: RPMI-8226
MOLT-4 = test system: MOLT-4
IGROV-1 = test system: IGROV-1
SN12C = test system: SN12C
HCT-15 = test system: HCT-15
SNB-75 = test system: SNB-75
786-0 = test system: 786-0
HOP-62 = test system: HOP-62
SK-OV-3 = test system: SK-OV-3
CCRF-CEM = test system: CCRF-CEM
U-251 = test system: U-251
UACC-62 = test system: UACC-62
UACC-257 = test system: UACC-257
SF-539 = test system: SF-539
HCC 2998 = test system: HCC 2998
OVCAR-4 = test system: OVCAR-4

Structure (SMILES)	GI50 (RPMI-8226)	GI50 (MOLT-4)	GI50 (IGROV-1)	GI50 (SN12C)	GI50 (HCT-15) [µM]	GI50 (SNB-75)	GI50 (786-0)	GI50 (HOP-62)	GI50 (SK-OV-3)	GI50 (CCRF-CEM)	GI50 (U-251)	GI50 (UACC-62)	GI50 (UACC-257)	GI50 (SF-539)	GI50 (HCC 2998)	GI50 (OVCAR-4)
CCOC(=O)CNC(=O)c1nc[nH]c1/N=N/N(C)C	> 100 µM (inactive)	> 100 µM (inactive)	> 100 µM (inactive)	> 100 µM (inactive)	> 100	> 100 µM (inactive)	> 100 µM (inactive)	> 100 µM (inactive)	> 100 µM (inactive)	> 100 µM (inactive)	> 100 µM (inactive)	> 100 µM (inactive)	> 100 µM (inactive)	> 100 µM (inactive)	> 100 µM (inactive)	> 100 µM (inactive)
CC(=O)NNc1nc(C)c(C(=O)/C=C/c2ccc(NC(C)=O)cc2)s1	> 100 µM (inactive)	> 100 µM (inactive)	> 100 µM (inactive)	> 100 µM (inactive)	> 100	> 100 µM (inactive)	> 100 µM (inactive)	> 100 µM (inactive)	> 100 µM (inactive)	> 100 µM (inactive)	> 100 µM (inactive)	> 100 µM (inactive)	98.6 µM (inactive)	> 100 µM (inactive)	> 100 µM (inactive)	
N=C(N)NS(=O)(=O)c1ccc(NC(=O)c2cccn3c(=O)c4ccccc4nc23)cc1	24.9 µM (inactive)	25.5 µM (inactive)	56 µM (inactive)	70.8 µM (inactive)		> 100 µM (inactive)	> 100 µM (inactive)	> 100 µM (inactive)	> 100 µM (inactive)	35.6 µM (inactive)	> 100 µM (inactive)	32.9 µM (inactive)	19.7 µM (inactive)	> 100 µM (inactive)	85.7 µM (inactive)	41.6 µM (inactive)
O=S(=O)(SCc1ccccc1)C(c1ccccc1)c1ccccc1	25 µM (inactive)	3.7 µM (inactive)	32.7 µM (inactive)	24.1 µM (inactive)	30.5	30.3 µM (inactive)	31.6 µM (inactive)	> 100 µM (inactive)	> 100 µM (inactive)	4.21 µM (inactive)	32.9 µM (inactive)	27.5 µM (inactive)	32.9 µM (inactive)	17.2 µM (inactive)	> 100 µM (inactive)	48.9 µM (inactive)
CCCCCCCCCCCCOC(=S)NC	16.9 µM (inactive)	13.1 µM (inactive)	18 µM (inactive)	17.7 µM (inactive)	17.8	29.9 µM (inactive)	19 µM (inactive)	22.2 µM (inactive)	27 µM (inactive)	33.4 µM (inactive)	18.3 µM (inactive)	17.1 µM (inactive)	20.3 µM (inactive)	18.2 µM (inactive)	17.5 µM (inactive)	24.1 µM (inactive)
CCN(CC)CCC(=O)/C=C/c1ccc(C)cc1	3.99 µM (inactive)	11.7 µM (inactive)	15.3 µM (inactive)	12 µM (inactive)	12.5	15.6 µM (inactive)	11.9 µM (inactive)	25.7 µM (inactive)	20.7 µM (inactive)	10.1 µM (inactive)	10.2 µM (inactive)	16.6 µM (inactive)	13.9 µM (inactive)	6.32 µM (inactive)	18.6 µM (inactive)	18.4 µM (inactive)
C/C(CC(=O)NCCc1ccccc1)=N\NC(=O)C[n+]1ccccc1	> 100 µM (inactive)	> 100 µM (inactive)	> 100 µM (inactive)		> 100	> 100 µM (inactive)	> 100 µM (inactive)	> 100 µM (inactive)	> 100 µM (inactive)	> 10 µM (inactive)	> 100 µM (inactive)	> 100 µM (inactive)	> 100 µM (inactive)	> 100 µM (inactive)	> 100 µM (inactive)	
COC(=O)C(CC(=O)c1ccccc1)c1ccccc1NC(C)=O (centres undefined)	> 100 µM (inactive)	> 100 µM (inactive)	> 100 µM (inactive)	> 100 µM (inactive)	> 100	87.1 µM (inactive)	> 100 µM (inactive)	> 100 µM (inactive)	> 100 µM (inactive)	> 100 µM (inactive)	> 100 µM (inactive)	> 100 µM (inactive)	> 100 µM (inactive)	> 100 µM (inactive)	> 100 µM (inactive)	> 100 µM (inactive)
CCOC(=O)NC1C2CC(=O)C(O2)C1OCc1ccccc1 (centres undefined)	> 100 µM (inactive)	> 100 µM (inactive)	> 100 µM (inactive)	> 100 µM (inactive)	> 100	> 100 µM (inactive)	> 100 µM (inactive)	> 100 µM (inactive)	> 100 µM (inactive)	> 100 µM (inactive)	> 100 µM (inactive)	> 100 µM (inactive)	> 100 µM (inactive)	> 100 µM (inactive)	> 100 µM (inactive)	> 100 µM (inactive)
[O-][S+]1c2ccccc2NC(c2ccc3ccccc3c2)CC1c1ccccc1 (centres undefined)	21.6 µM (inactive)	24 µM (inactive)	19.3 µM (inactive)	32.6 µM (inactive)	22.3	24.8 µM (inactive)	17.3 µM (inactive)	40.6 µM (inactive)	99.1 µM (inactive)	17 µM (inactive)		37.1 µM (inactive)	32.4 µM (inactive)	20 µM (inactive)	17.8 µM (inactive)	23.9 µM (inactive)
COc1ccc(N2C(=O)C3c4[nH]c5ccccc5c4C4CCCCC4C3C2=O)cc1 (centres undefined)	32.3 µM (inactive)	16.1 µM (inactive)	24.7 µM (inactive)	25.5 µM (inactive)	> 100	3.5 µM (inactive)	11.1 µM (inactive)	15 µM (inactive)	19.7 µM (inactive)	11.9 µM (inactive)	15.6 µM (inactive)	10.3 µM (inactive)	27.8 µM (inactive)	14.5 µM (inactive)	18.3 µM (inactive)	5.4 µM (inactive)
O=c1cc(-c2ccccc2)[nH]c2c(Cl)cccc12	17 µM (inactive)	8.34 µM (inactive)	4.86 µM (inactive)	46.2 µM (inactive)	5.09	13.8 µM (inactive)	26.3 µM (inactive)	7.26 µM (inactive)		16.1 µM (inactive)	87.5 µM (inactive)	4.55 µM (inactive)	78.3 µM (inactive)	15.3 µM (inactive)	14.8 µM (inactive)	18.9 µM (inactive)
C=CCOCCCC(=O)C(=[N+]=[N-])C(=O)OC	> 100 µM (inactive)	> 100 µM (inactive)	> 100 µM (inactive)	> 100 µM (inactive)	> 100	> 100 µM (inactive)	> 100 µM (inactive)		> 100 µM (inactive)	> 100 µM (inactive)	> 100 µM (inactive)	> 100 µM (inactive)	> 100 µM (inactive)	> 100 µM (inactive)	> 100 µM (inactive)	> 100 µM (inactive)
COc1ccc2nc(C(=O)c3ccccc3)c(C)cc2c1	6.61 µM (inactive)	5.02 µM (inactive)	> 29.2 µM (inactive)	6.84 µM (inactive)	3.3	2.96 µM (inactive)	7.03 µM (inactive)	6.47 µM (inactive)	3.83 µM (inactive)	4.2 µM (inactive)	3.5 µM (inactive)	5.26 µM (inactive)	4.14 µM (inactive)	3.05 µM (inactive)	6.01 µM (inactive)	97.1 µM (inactive)
CN(C)c1ccc(/C=C2\N=C(c3ccc(N)cc3)OC2=O)cc1	> 100 µM (inactive)	> 100 µM (inactive)	> 100 µM (inactive)	> 100 µM (inactive)	> 100	> 100 µM (inactive)	> 100 µM (inactive)	> 100 µM (inactive)	> 100 µM (inactive)	> 100 µM (inactive)	> 100 µM (inactive)	> 100 µM (inactive)	> 100 µM (inactive)	> 100 µM (inactive)	> 100 µM (inactive)	> 100 µM (inactive)
CC1CC2(S(=O)(=O)c3ccccc3)ON1CC2S(=O)(=O)c1ccccc1 (centres undefined)	> 100 µM (inactive)	> 100 µM (inactive)	> 100 µM (inactive)	> 100 µM (inactive)	> 100	> 100 µM (inactive)	> 100 µM (inactive)	> 100 µM (inactive)	> 100 µM (inactive)	> 100 µM (inactive)	> 100 µM (inactive)	> 100 µM (inactive)	> 100 µM (inactive)	42.3 µM (inactive)	> 100 µM (inactive)	> 100 µM (inactive)
CCCC(=O)c1c(NOC2OCC(OC(C)=O)C(OC(C)=O)C2OC(C)=O)nc(OC)n(C)c1=O (centres undefined)	> 100 µM (inactive)	> 100 µM (inactive)	> 100 µM (inactive)	> 100 µM (inactive)	> 100	> 100 µM (inactive)	> 100 µM (inactive)	> 100 µM (inactive)	> 100 µM (inactive)	3.25 µM (inactive)	> 100 µM (inactive)	> 100 µM (inactive)	> 100 µM (inactive)	> 100 µM (inactive)	> 100 µM (inactive)	> 100 µM (inactive)
Cc1cccc2c3ccc4c(c3n(C)c12)C(=O)C=CC4=O	32.8 µM (inactive)	35.9 µM (inactive)	> 100 µM (inactive)	> 100 µM (inactive)		> 100 µM (inactive)	> 100 µM (inactive)	> 100 µM (inactive)	> 100 µM (inactive)	18.2 µM (inactive)		59.7 µM (inactive)	> 100 µM (inactive)	> 100 µM (inactive)	> 100 µM (inactive)	> 100 µM (inactive)
